IC50 data for 24 compounds are collected here from patent US11065253B2, “Arylquinazolines” (Merck Patent GmbH, priority 2013, dated 2021).

The subject of the test is phospho-serine 2056 DNA-PK in HCT116 cells. Put plainly: DNA-PK phosphorylation at serine 2056 (cellular), ELISA in bleomycin-treated HCT116 cells. As to conditions: read-out: IC50 pDNA-PK. Type of test: cell-based. How it is done: HCT116 cells were cultivated at 37° C. and 10% CO2 in MEM alpha medium with 10% of foetal calf serum and 2 mM glutamine. The cells were detached from the base of the culture vessels with the aid of trypsin/EDTA, centrifuged off in centrifuge tubes, taken up in fresh medium, and the cell density was determined. 100,000 cells were sown in 1 ml of culture medium per cavity of a 24-well cell culture plate and cultivated overnight. Next day, 10 μM bleomycin (DNA intercalator and inductor of DNA double-strand breaks) and test substances in fresh culture medium were added to the cells, and these were cultivated for a further six hours. […] The 96-well ELISA plates were subsequently treated with a detection antibody (Abcam ab79444: total DNA-PK) and a streptavidin-HRP conjugate. The development of the enzymatic reaction was carried out with the aid of a chemiluminescent reagent, the chemiluminescence was measured with the aid of a Mithras LB940. The signals with the phospho-DNA-PK-specific antibody were standardised to the signal with the antibody against the total protein DNA-PKc. […] The DMSO control was used as blank.
(In general: ELISA stands for enzyme-linked immunosorbent assay.)

[1] abbreviates: cellular DNA-PK phosphorylation at serine 2056, HCT116 cells.
The mark [2] stands for this setting: Homo sapiens, HCT-116, cellular DNA-PK phosphorylation at serine 2056, HCT116 cells.
[3] abbreviates: Homo sapiens, HCT-116, phospho-serine 2056 DNA-PK, bleomycin-treated HCT116 cells, class symbols A-D.
[4] abbreviates: Homo sapiens, HCT-116, 6 h, cellular, HCT116 cells, 10 μM bleomycin, six hours.
Setting [5] is: Homo sapiens, HCT-116, phospho-serine 2056 DNA-PK, bleomycin-treated HCT116 cells.

Where two headings read alike, the source gives them in different places.

As to `OC(c1cc(-c2ncnc3cc(N4CCOCC4)ccc23)c(F)cc1F)c1ncnc2ccoc12` (stereo not drawn) [Example 446, [2,4-Difluoro-5-(7-morpholin-4-yl-quinazolin-4-yl)-phenyl]furo[3,2-d}-pyrimidin-4-yl-methanol], the half-maximal inhibitory concentration (IC50) under setting [1] was 0.5 to 5 µM. In the case of `OC(c1cc(-c2ncnc3cc(N4CCOCC4)ccc23)ccc1F)c1cccc2nncn12` (stereo not drawn) [Example 373, [2-Fluoro-5-(7-morpholin-4-yl-quinazolin-4-yl)-phenyl]-[1,2,4]-triazolo[4,3-a]pyridin-5-ylmethanol], under setting [2], the IC50 lay in the range of 0.5 to 5 µM.

For the compound `Cn1nc(C(O)c2ccc(F)c(-c3ncnc4cc(N5CCOCC5)ccc34)c2F)ccc1=O` (stereo not drawn) [Example 220, 6-{[2,4-Difluoro-3-(7-morpholin-4-yl-quinazolin-4-yl)-phenyl]hydroxy-methyl}-2-methyl-2H-pyridazin-3-one], the IC50 under setting [3] was in the range of 5 to 10 µM. As for `Cc1nccnc1C(O)c1cc(-c2ncnc3cc(N4CCOCC4)ccc23)c(F)cc1F` (stereo not drawn) [Example 86, [2,4-Difluoro-5-(7-morpholin-4-yl-quinazolin-4-yl)-phenyl]-(3-methyl-pyrazin-2-yl)methanol], the IC50 (cellular, HCT116 cells, 10 μM bleomycin, six hours) was < 0.5 µM.

For `COc1ccc(C(O)c2cc(-c3ncnc4cc(N5CCOCC5)ccc34)ccc2Cl)nn1` (stereo not drawn) [Example 460, [2-Chloro-5-(7-morpholin-4-yl-quinazolin-4-yl)-phenyl]-(6-methoxy-pyridazin-3-yl)-methanol], the 50% inhibitory concentration (IC50) under setting [1] was < 0.5 µM. With `Cn1ncc2c(C(O)c3cc(-c4ncnc5cc(N6CCOCC6)ccc45)c(F)cc3Cl)ncnc21` (stereo not drawn) [Example 402, [2-Chloro-4-fluoro-5-(7-morpholin-4-yl-quinazolin-4-yl)-phenyl]-(1-methyl-1H-pyrazolo[3,4-d}-pyrimidin-4-yl)-methanol], the IC50 under setting [2] lay within 0.5 to 5 µM. For `Cc1cncnc1C(O)c1cc(-c2ncnc3cc(N4CCOCC4)ccc23)ccc1Cl` (stereo not drawn) [Example 419, [2-Chloro-5-(7-morpholin-4-yl-quinazolin-4-yl)-phenyl]-(5-methyl-pyrimidin-4-yl)-methanol], the IC50 under setting [1] lay within 0.5 to 5 µM. As to `COC(=O)c1ccc(C(O)c2cc(-c3ncnc4cc(N5CCOCC5)ccc34)c(F)cc2Cl)nn1` (stereo not drawn) [Example 58, 6-{[2-Chloro-4-fluoro-5-(7-morpholin-4-yl-quinazolin-4-yl)phenyl]-hydroxymethyl}-pyridazine-3-carboxylic acid methyl ester], the IC50 under setting [4] was 5 to 10 µM. For `OC(c1cccnc1)c1cc(-c2ncnc3cc(N4CCOCC4)ccc23)c(F)cc1F` (stereo not drawn) [Example 217, [2,4-Difluoro-5-(7-morpholin-4-yl-quinazolin-4-yl)-phenyl]pyridin-3-yl-methanol], the half-inhibitory concentration (IC50) under setting [3] was < 0.5 µM. For `COc1ccc(C(O)c2cc(-c3ncnc4cc(N5CCOCC5)sc34)c(F)cc2Cl)nn1` (single isomer, unassigned) [Example 126, [2-Chloro-4-fluoro-5-(6-morpholin-4-ylthieno[3,2-d}-pyrimidin-4-yl)-phenyl]-(6-methoxy-pyridazin-3-yl)-methanol], the half-maximal inhibitory concentration (IC50) (phospho-serine 2056 DNA-PK, bleomycin-treated HCT116 cells, class symbols A-D) is < 0.5 µM. On to `CCn1c(C(O)c2ccc(F)c(-c3ncnc4cc(N5CCOCC5)ccc34)c2)cccc1=O` (stereo not drawn) [Example 398, 1-Ethyl-6-{[4-fluoro-3-(7-morpholin-4-yl-quinazolin-4-yl)-phenyl]hydroxy-methyl}-1H-pyridin-2-one], for which the IC50 under setting [2] was in the range of 0.5 to 5 µM. Consider `Cn1cnc2c(C(O)c3cc(-c4ncnc5cc(N6CCOCC6)ccc45)c(F)cc3F)ncnc21` (stereo not drawn) [Example 347, [2,4-Difluoro-5-(7-morpholin-4-yl-quinazolin-4-yl)-phenyl]-(9-methyl-9H-purin-6-yl)-methanol (Ena 1)], for which the IC50 (phospho-serine 2056 DNA-PK, bleomycin-treated HCT116 cells) is 0.5 to 5 µM. Regarding `COc1nccnc1C(O)c1cc(-c2ncnc3cc(N4CCOCC4)ccc23)ccc1F` (stereo not drawn) [Example 394, [2-Fluoro-5-(7-morpholin-4-yl-quinazolin-4-yl)-phenyl]-(3-methoxy-pyrazin-2-yl)-methanol], the 50% inhibitory concentration (IC50) under setting [2] fell in the range of 0.5 to 5 µM.

As to `Cn1nccc1C(O)c1ccc(F)c(-c2nc(Cl)nc3cc(N4CCOCC4)ccc23)c1` (stereo not drawn) [Example 214, [3-(2-Chloro-7-morpholin-4-yl-quinazolin-4-yl)-4-fluoro-phenyl]-(2-methyl-2H-pyrazol-3-yl)-methanol], the IC50 under setting [4] fell in the range of 10 to 30 µM. Regarding `Cn1c(C(C(N)=O)c2cc(-c3ncnc4cc(N5CCOCC5)ccc34)c(F)cc2Cl)cccc1=O` (stereo not drawn) [Example 312, 2-[2-Chloro-4-fluoro-5-(7-morpholin-4-yl-quinazolin-4-yl)-phenyl]-2-(1-methyl-6-oxo-1,6-dihydro-pyridin-2-yl)-acetamide], the IC50 under setting [5] was 10 to 30 µM. On the same count and under the same terms, under `Cn1c(C(O)c2ccc(F)c(-c3ncnc4cc(N5CCOCC5)ccc34)c2)nccc1=O` (stereo not drawn) [Example 360, 2-([4-Fluoro-3-(7-morpholin-4-yl-quinazolin-4-yl)-phenyl]hydroxy-methyl}-3-methyl-3H-pyrimidin-4-one] stands 0.5 to 5 µM; under `NC(=O)C(c1cccnc1)c1cc(-c2ncnc3cc(N4CCOCC4)ccc23)c(F)cc1F` (stereo not drawn) [Example 294, 2-[2,4-Difluoro-5-(7-morpholin-4-yl-quinazolin-4-yl)-phenyl]-2-pyridin-3-ylacetamide], 10 to 30 µM. On to `COc1nccnc1[C@@H](O)c1cc(-c2ncnc3cc(N4CCOCC4)ccc23)c(F)cc1Cl` [Example 456, (S)-[2-Chloro-4-fluoro-5-(7-morpholin-4-yl-quinazolin-4-yl)-phenyl]-(3-methoxy-pyrazin-2-yl)-methanol], for which the half-inhibitory concentration (IC50) under setting [1] is < 0.5 µM.

As to `OCc1csc(C(O)c2cc(-c3ncnc4cc(N5C6CCC5COC6)ccc34)c(F)cc2Cl)n1` (stereo not drawn) [Example 187, {2-Chloro-4-fluoro-5-[7-(3-oxa-8-aza-bicyclo[3.2.1]oct-8-yl)quinazolin-4-yl]-phenyl}-(4-hydroxy-methylthiazol-2-yl)-methanol], the IC50 under setting [3] was in the range of 10 to 30 µM. Regarding `Cn1c(C(O)c2ccc(F)c(-c3ncnc4cc(N5CCOCC5)ccc34)c2)cccc1=O` (stereo not drawn) [Example 91, 6-{[4-Fluoro-3-(7-morpholin-4-yl-quinazolin-4-yl)-phenyl]hydroxy-methyl}-1-methyl-1H-pyridin-2-one], under setting [4], the IC50 is < 0.5 µM. For the compound `OC(c1ccc(OCC(F)(F)F)nn1)c1cc(-c2ncnc3cc(N4CCOCC4)ccc23)c(F)cc1Cl` (stereo not drawn) [Example 115, [2-Chloro-4-fluoro-5-(7-morpholin-4-yl-quinazolin-4-yl)-phenyl]-[6-(2,2,2-trifluoro-ethoxy)-pyridazin-3-yl]-methanol], under setting [3], the concentration for half-maximal inhibition (IC50) is 0.5 to 5 µM. For the compound `NC(=O)Cn1nc(C(O)c2cc(-c3ncnc4cc(N5CCOCC5)ccc34)c(F)cc2Cl)ccc1=O` (stereo not drawn) [Example 98, 2-(3-{[2-Chloro-4-fluoro-5-(7-morpholin-4-ylquinazolin-4-yl)-phenyl]hydroxymethyl}-6-oxo-6H-pyridazin-1-yl)acetamide], the IC50 under setting [4] lay within 10 to 30 µM. Take `[2H]c1c(N2CCOCC2)cc2ncnc(-c3cc(C(O)c4ccc(OC)nn4)c(Cl)cc3F)c2c1[2H]` (stereo not drawn) [Example 225, [2-Chloro-5-(5,6-dideuterio-7-morpholino-quinazolin-4-yl)-4-fluorophenyl]-(6-methoxypyridazin-3-yl)methanol]: the 50% inhibitory concentration (IC50) under setting [5] was < 0.5 µM. On to `Cn1cnc2c(C(O)c3cc(-c4ncnc5cc(N6CCOCC6)ccc45)c(F)cc3F)ncnc21` (stereo not drawn) [Example 421, [2,4-Difluoro-5-(7-morpholin-4-yl-quinazolin-4-yl)-phenyl]-(9-methyl-9H-purin-6-yl)-methanol], for which the IC50 under setting [2] lay in the range of 0.5 to 5 µM.

A word on the IC50: it is the concentration that gives 50% inhibition.
